Assay results as given in US12441679B2, “Acrylamide-substituted indane compounds and therapeutic use thereof” (Sanofi, priority 2020, dated 2025).

tested on: YAP1-TEAD and TAZ-TEAD activity (TEAD responsive promoter element); assay: TEAD-Luciferase Reporter Assay (8XGTIIC-Luciferase construct stably integrated in tumor cell lines); format: cell-based, human; conditions: 8XGTIIC-Luciferase reporter in tumor cell lines, 48 hrs compound treatment, 10 doses 1-10000 nM
Description: TEAD-Luciferase Reporter Assay
Luciferase-based gene reporter assays were used, employing the TEAD responsive promoter element that are stably integrated to different human tumor cell lines in order to monitor YAP1-TEAD and TAZ-TEAD activity and to study YAP1/TAZ-TEAD activity modulation by small molecule compounds. Luciferase-based gene reporter assays employing the GAPDH promoter element and stably integrated to different human tumor cell lines are used as counter screen control cell lines.
Tumor cell lines with stable integration of the 8XGTIIC-Luciferase construct (Dupont et al., Nature 2011) or the GAPDH-Luciferase control plasmid, are seeded in culture medium in 96-well plates at a density of 8000 cells/well. Following an overnight incubation in a 37° C., 5% CO2 growth chamber, cells are treated with compounds described above at 10 doses ranging between 1 and 10000 nM for 48 hrs. After compound incubation, cells are lysed with Bright-Glo Luciferase Assay System (Promega E2620) and luciferase activity is measured using a luminescent plate reader.
The inhibitory activity of the compounds with respect to luciferase activity is given by the concentration which inhibits 50% of activity of non-treated cells. IC50s are determined with a nonlinear regression model on XLfit software analysis (IDBS, UK).

Molecule | IC50
(S)—N-(1-((4-fluorophenyl)amino)-2,3-dihydro-1H-inden-5-yl)acrylamide [Example 6] | 31 nM
(S)—N-(1-((3-(trifluoromethyl)phenyl)amino)-2,3-dihydro-1H-inden-5-yl)acrylamide [Example 3] | 109 nM

same assay, conditions: Homo sapiens; 8XGTIIC-Luciferase reporter in tumor cell lines, 48 hrs compound treatment, 10 doses 1-10000 nM

Molecule | IC50
C=CC(=O)Nc1ccc2c(c1)C[C@@H](O)[C@@H]2Nc1cccc(C(F)(F)F)c1 (relative stereo) [Example 95, N-[(trans)-2-hydroxy-1-[3-(trifluoromethyl)anilino]-2,3-dihydro-1H-inden-5-yl]acrylamide] | 653 nM
C=CC(=O)Nc1ccc2c(c1)C(NC1CCC(F)(F)CC1)CC2 (centres unmarked) [Example 70, N-(3-((4,4-difluorocyclohexyl)amino)-2,3-dihydro-1H-inden-5-yl)acrylamide] | 5260 nM
C=CC(=O)Nc1ccc2c(c1)CC(NC1CCC(F)(F)CC1)C2 (centres unmarked) [Example 28, N-(2-((4,4-difluorocyclohexyl)amino)-2,3-dihydro-1H-inden-5-yl)acrylamide] | 4020 nM
C=CC(=O)Nc1ccc2c(c1)C(Oc1ccc(F)cc1)CC2 (centres unmarked) [Example 42, N-(3-(4-fluorophenoxy)-2,3-dihydro-1H-inden-5-yl)acrylamide] | 29 nM
C=CC(=O)Nc1ccc2c(c1)CC[C@@H]2Oc1cccc(C(F)(F)F)c1 (single isomer, unassigned) [Example 84] | 153 nM
C=CC(=O)Nc1ccc2c(c1)C(OCCCC(F)F)CC2 (centres unmarked) [Example 73, N-(3-(4,4-difluorobutoxy)-2,3-dihydro-1H-inden-5-yl)acrylamide] | 1310 nM
C=CC(=O)Nc1ccc2c(c1)CCC2N(C)c1ccc(C(F)(F)F)cc1 (centres unmarked) [Example 64, N-(1-(methyl(4-(trifluoromethyl)phenyl)amino)-2,3-dihydro-1H-inden-5-yl)acrylamide] | 806 nM
C=CC(=O)Nc1ccc2c(c1)C(OCCC(F)(F)F)CC2 (centres unmarked) [Example 75, N-(3-(3,3,3-trifluoropropoxy)-2,3-dihydro-1H-inden-5-yl)acrylamide] | 4720 nM
C=CC(=O)Nc1ccc2c(c1)CC(NCCCF)C2 (centres unmarked) [Example 30, N-(2-((3-fluoropropyl)amino)-2,3-dihydro-1H-inden-5-yl)acrylamide] | > 10000 nM
C=CC(=O)Nc1ccc2c(c1)CCC2NCc1ccc(C(F)(F)F)cc1 (centres unmarked) [Example 25, N-(1-((4-(trifluoromethyl)benzyl)amino)-2,3-dihydro-1H-inden-5-yl)acrylamide] | 8240 nM
C=CC(=O)Nc1ccc2c(c1)C(Oc1cccc(SC)c1)CC2 (centres unmarked) [Example 80, N-(3-(3-(methylthio)phenoxy)-2,3-dihydro-1H-inden-5-yl)acrylamide] | 300 nM
C=CC(=O)Nc1ccc2c(c1)CC[C@H]2Nc1cc(C(F)(F)F)ccn1 (single isomer, unassigned) [Example 58] | 216 nM
C=CC(=O)Nc1ccc2c(c1)CCC2Nc1ccc(C(F)(F)F)cc1 (centres unmarked) [Example 10, N-(1-((4-(trifluoromethyl)phenyl)amino)-2,3-dihydro-1H-inden-5-yl)acrylamide] | 44 nM
C=CC(=O)Nc1ccc2c(c1)C[C@H](Nc1cccc(C(F)(F)F)c1)C2 (single isomer, unassigned) [Example 50] | 76 nM
C=CC(=O)Nc1ccc2c(c1)C(Nc1cccc(F)c1)CC2 (centres unmarked) [Example 14, N-(3-((3-fluorophenyl)amino)-2,3-dihydro-1H-inden-5-yl)acrylamide] | 54 nM
C=CC(=O)Nc1ccc2c(c1)CC(Nc1cccc(C(F)(F)F)c1)C2 (centres unmarked) [Example 32, N-(2-((3-(trifluoromethyl)phenyl)amino)-2,3-dihydro-1H-inden-5-yl)acrylamide] | 64 nM
C=CC(=O)Nc1ccc2c(c1)C(Nc1cccc(C(F)(F)F)c1)CC2 (centres unmarked) [Example 11, N-(3-((3-(trifluoromethyl)phenyl)amino)-2,3-dihydro-1H-inden-5-yl)acrylamide] | 37 nM

Molecule | IC50
C=CC(=O)Nc1ccc2c(c1)C(Nc1cc(F)cc(F)c1)CC2 (centres unmarked) [Example 53, N-(3-((3,5-difluorophenyl)amino)-2,3-dihydro-1H-inden-5-yl)acrylamide] | 57 nM
C=CC(=O)Nc1ccc2c(c1)C[C@@H](Nc1cccc(C(F)(F)F)c1)C2 (single isomer, unassigned) [Example 51] | 4330 nM
C=CC(=O)Nc1ccc2c(c1)CC[C@@H]2Nc1ccc(C(F)(F)F)cc1 (single isomer, unassigned) [Example 56] | 44 nM
C=CC(=O)Nc1ccc2c(c1)C(OCCCC(F)(F)F)CC2 (centres unmarked) [Example 33, N-(3-(4,4,4-trifluorobutoxy)-2,3-dihydro-1H-inden-5-yl)acrylamide] | 170 nM
C=CC(=O)Nc1ccc2c(c1)C(Nc1cccc(C(F)(F)F)c1)C(F)C2 (centres unmarked) [Example 91, N-(2-fluoro-3-((3-(trifluoromethyl)phenyl)amino)-2,3-dihydro-1H-inden-5-yl)acrylamide] | 209 nM
C=CC(=O)Nc1ccc2c(c1)C(Oc1cccc(F)c1)CC2 (centres unmarked) [Example 41, N-(3-(3-fluorophenoxy)-2,3-dihydro-1H-inden-5-yl)acrylamide] | 87 nM
C=CC(=O)Nc1ccc2c(c1)C(OC1CCC(F)(F)CC1)CC2 (centres unmarked) [Example 35, N-(3-((4,4-difluorocyclohexyl)oxy)-2,3-dihydro-1H-inden-5-yl)acrylamide] | 583 nM
C=CC(=O)Nc1ccc2c(c1)CCC2Nc1cc(C(F)(F)F)ccn1 (centres unmarked) [Example 59, N-(1-((4-(trifluoromethyl)pyridin-2-yl)amino)-2,3-dihydro-1H-inden-5-yl)acrylamide 2,2,2-trifluoroacetate] | 60 nM
C=CC(=O)Nc1ccc2c(c1)C(Oc1cccc(C)c1)CC2 (centres unmarked) [Example 79, N-(3-(m-tolyloxy)-2,3-dihydro-1H-inden-5-yl)acrylamide] | 8670 nM
C=CC(=O)Nc1ccc2c(c1)CC(N[C@H]1CC[C@@H](C(F)(F)F)CC1)C2 (relative stereo) [Example 26, N-(2-(((cis)-4-(trifluoromethyl)cyclohexyl)amino)-2,3-dihydro-1H-inden-5-yl)acrylamide] | > 10000 nM
C=CC(=O)Nc1ccc2c(c1)C(Nc1ccc(F)c(F)c1)CC2 (centres unmarked) [Example 13, N-(3-((3,4-difluorophenyl)amino)-2,3-dihydro-1H-inden-5-yl)acrylamide] | 37 nM
C=CC(=O)Nc1ccc2c(c1)C(Nc1ccc(C(F)(F)F)cc1)CC2 (centres unmarked) [Example 12, N-(3-((4-(trifluoromethyl)phenyl)amino)-2,3-dihydro-1H-inden-5-yl)acrylamide] | 55 nM
C=CC(=O)Nc1ccc2c(c1)CC[C@H]2Nc1ccc(F)cc1 [Example 7, (R)—N-(1-((4-fluorophenyl)amino)-2,3-dihydro-1H-inden-5-yl)acrylamide] | 28 nM
C=CC(=O)Nc1ccc2c(c1)CCC2Oc1ccc(C(F)(F)F)cc1 (centres unmarked) [Example 82, N-(1-(4-(trifluoromethyl)phenoxy)-2,3-dihydro-1H-inden-5-yl)acrylamide] | 31 nM
C=CC(=O)Nc1ccc2c(c1)CCC2Nc1cccc(C)c1 (centres unmarked) [Example 18, N-(1-(m-tolylamino)-2,3-dihydro-1H-inden-5-yl)acrylamide] | 213 nM
C=CC(=O)Nc1ccc2c(c1)CCC2Oc1cccc(C(F)(F)F)c1 (centres unmarked) [Example 45, N-(1-(3-(trifluoromethyl)phenoxy)-2,3-dihydro-1H-inden-5-yl)acrylamide] | 12 nM
